Experimental data reported in patent US12673055B2, “Treatment of atopic dermatitis with tradipitant” (Vanda Pharmaceuticals Inc., priority 2020, dated 2026).

Test system: atopic dermatitis (AD) patients with severe pruritus
Assay: EPIONE randomized, placebo-controlled phase III study
Format: in vivo, human
Design: key to WI-NRS Adjusting for IGA Severity / WI-NRS (change) / Diary WI-NRS: change from baseline in WI-NRS itch score
Experimental: A randomized, placebo-controlled phase III study is conducted in atopic dermatitis (AD) patients with severe pruritus with a range of disease severity presentation from mild (23%) to moderate (64%) and severe (13%) as determined by the Investigator's Global Assessment scale (IGA). In the study, patients (n=341) are randomized 1:1 to receive either tradipitant or placebo for a treatment period of eight (8) weeks. Patients in the tradipitant arm of the study are dosed with 85 mg tradipitant twice daily (bid). Patients are assessed at baseline and post-randomization with a number of symptomatic and disease severity scales at regular intervals.
A significant interaction is observed between baseline disease severity and treatment (p=0.0004), where disease severity is measured by Investigator's Global Assessment (IGA) on a scale of 1-4.
Similar effects are seen throughout the treatment periods at all post-randomization visits comprising weeks 2, 4, 6 and 8 (Table 1).

[1] = mild AD (n = 79), 85 mg bid, Week 8

O=C(c1ccccc1Cl)c1cccnc1-c1nnn(Cc2cc(C(F)(F)F)cc(C(F)(F)F)c2)c1-c1ccncc1 [Tradipitant]
WI-NRS (change) (IGA 1, 2 (mild AD, n = 79), Tradipitant n = 40, 85 mg bid, Week 2): −2.59
WI-NRS (change) (IGA 1, 2 (mild AD, n = 79), Tradipitant n = 40, 85 mg bid, Week 4): −3.39
WI-NRS (change) (IGA 1, 2 (mild AD, n = 79), Tradipitant n = 40, 85 mg bid, Week 6): −4.18
WI-NRS (change) (IGA 1, 2 (mild AD, n = 79), Tradipitant n = 40, 85 mg bid, Week 8): −4.74
Diary WI-NRS (IGA 1, 2 (n = 79), 85 mg bid, Week 2): −1.54
Diary WI-NRS (IGA 1, 2 (n = 79), 85 mg bid, Week 4): −2.78
Diary WI-NRS (IGA 1, 2 (n = 79), 85 mg bid, Week 6): −3.48
Diary WI-NRS (IGA 1, 2 (n = 79), 85 mg bid, Week 8): −4.23
Diary WI-NRS Diff (tradipitant vs placebo) (IGA 1, 2 (n = 79), Week 2): 1.18
WI-NRS Diff (tradipitant vs placebo) (IGA 1, 2 (n = 79), Week 2): 1.61
Diary WI-NRS Diff (tradipitant vs placebo) (IGA 1, 2 (n = 79), Week 4): 1.71
WI-NRS Diff (tradipitant vs placebo) (IGA 1, 2 (n = 79), Week 4): 1.92
Diary WI-NRS Diff (tradipitant vs placebo) (IGA 1, 2 (n = 79), Week 6): 1.76
WI-NRS Diff (tradipitant vs placebo) (IGA 1, 2 (n = 79), Week 6): 1.86
Diary WI-NRS Diff (tradipitant vs placebo) (IGA 1, 2 (n = 79), Week 8): 2.09
WI-NRS Diff (tradipitant vs placebo) (IGA 1, 2 (n = 79), Week 8): 1.60
WI-NRS Adjusting for IGA Severity (ITT (n = 341), 85 mg bid, Week 2): −2.43
WI-NRS Adjusting for IGA Severity (ITT (n = 341), 85 mg bid, Week 4): −3.34
WI-NRS Adjusting for IGA Severity (ITT (n = 341), 85 mg bid, Week 6): −3.75
WI-NRS Adjusting for IGA Severity (ITT (n = 341), 85 mg bid, Week 8): −4.36
WI-NRS (change) (ITT (n = 341), Tradipitant n = 171, 85 mg bid, Week 2): −1.68
WI-NRS (change) (ITT (n = 341), Tradipitant n = 171, 85 mg bid, Week 4): −2.58
WI-NRS (change) (ITT (n = 341), Tradipitant n = 171, 85 mg bid, Week 6): −3.00
WI-NRS (change) (ITT (n = 341), Tradipitant n = 171, 85 mg bid, Week 8): −3.61
WI-NRS Adjusting for IGA Severity, Diff (tradipitant vs placebo) (ITT (n = 341), Week 2): 1.14
WI-NRS Diff (tradipitant vs placebo) (ITT (n = 341), Week 2): 0.23
WI-NRS Adjusting for IGA Severity, Diff (tradipitant vs placebo) (ITT (n = 341), Week 4): 1.29
WI-NRS Diff (tradipitant vs placebo) (ITT (n = 341), Week 4): 0.39
WI-NRS Adjusting for IGA Severity, Diff (tradipitant vs placebo) (ITT (n = 341), Week 6): 1.01
WI-NRS Diff (tradipitant vs placebo) (ITT (n = 341), Week 6): 0.11
WI-NRS Adjusting for IGA Severity, Diff (tradipitant vs placebo) (ITT (n = 341), Week 8): 1.08
WI-NRS Diff (tradipitant vs placebo) (ITT (n = 341), Week 8): 0.18
magnitude of improvement in pruritus (WI-NRS) compared with placebo (full population, week 8, difference not statistically significant): greater than that of placebo
improvement in WI-NRS compared to placebo, accounting for baseline disease severity and treatment interaction (full trial population, week 8, p=0.0217): significantly larger improvement
safety profile (in vivo): relatively safe profile
WI-NRS over placebo in the mild AD group (mild AD (IGA 1, 2), every visit): significantly improves WI-NRS over placebo at every visit
Responder Analysis: IGA 0 or 1 [1]: 60.0%
Responder Analysis: SCORAD 50% Improvement [1]: 55.0%
Responder Analysis: IGA 0 or 1, Diff (tradipitant vs placebo) (mild AD (n = 79), Week 8): 21.5%
Responder Analysis: SCORAD 50% Improvement, Diff (tradipitant vs placebo) (mild AD (n = 79), Week 8): 24.2%
Responder Analysis: WI-NRS ≥4 Improvement, Diff (tradipitant vs placebo) (mild AD (n = 79), Week 8): 39.2%
time course of response: onset of antipruritic effect (mild AD patients, daily diary): immediately after the first full day of tradipitant dosing
Responder Analysis: WI-NRS ≥4 Improvement (mild AD, IGA 1, 2 (n = 79), 85 mg bid, Week 8): 72.5%
